# Assay results reported in publication PMC9405102, “Targeted Modification and Structure-Activity Study of GL-29, an Analogue of the Antimicrobial Peptide Palustrin-2ISb” (Antibiotics, 2022).
# Where no end group is shown, it is not given here.
# Tests used:
# E. faecalis (NCTC 12697) = type: cell-based, Enterococcus faecalis; conditions: E. faecalis (NCTC 12697)
# Protocol: (§1) The antimicrobial activity of the peptides was determined through the minimum inhibitory concentrations (MICs) and the minimum bactericidal concentration (MBCs) using the broth-dilution method in a 96-well plate, as described in the previous study. Six bacteria, including the Gram-positive bacteria, S. aureus (ATCC CRM 6538), MRSA (ATCC CRM 12493) and E. faecalis (NCTC 12697), the Gram-negative bacteria, E. coli (ATCC CRM 8739), K. pneumoniae (ATCC CRM 43816) and P. aeruginosa (ATCC CRM 9027), the yeast, C. albicans (ATCC CRM 10231) and clinical isolates, S. aureus (B042 V2E1 A), MRSA (B038 V1S1 A), E. coli (ATCC BAA-2340) and K. pneumoniae (ATCC BAA-1705) were used in these assays to evaluate the antimicrobial potency of the two peptides by determining their MICs and MBCs. All bacteria were cultured in MHB and the yeast, C. albicans was cultured in YPD broth overnight. Then, the microorganisms were sub-cultured and diluted to the final concentration of 2 × 10^5 CFU/mL to 5 × 10^5 CFU/mL. The Norfloxacin and amphotericin B were used as positive controls for the bacteria and yeast, respectively. The assay was repeated three times, with five replicates at each time.
# [1] = test system: P. aeruginosa (ATCC CRM 9027); type: cell-based, Pseudomonas aeruginosa; conditions: P. aeruginosa (ATCC CRM 9027)
# Protocol: as §1
# [2] = test system: C. albicans (ATCC CRM 10231); type: cell-based, Candida albicans; conditions: C. albicans (ATCC CRM 10231)
# Protocol: as §1
# [3] = test system: S. aureus (ATCC CRM 6538); type: cell-based, Staphylococcus aureus; conditions: S. aureus (ATCC CRM 6538)
# Protocol: as §1
# S. aureus (B042 V2E1 A) = type: cell-based, Staphylococcus aureus; conditions: clinical isolated strain S. aureus (B042 V2E1 A)
# Protocol: as §1
# MRSA (ATCC CRM 12493) [4] = type: cell-based, methicillin-resistant S. aureus; conditions: MRSA (ATCC CRM 12493)
# Protocol: as §1
# MRSA (B038 V1S1 A) = type: cell-based, methicillin-resistant S. aureus; conditions: clinical isolated strain MRSA (B038 V1S1 A)
# Protocol: as §1
# E. coli (ATCC BAA-2340) = type: cell-based, Escherichia coli; conditions: KPC-producing resistant strain E. coli (ATCC BAA-2340)
# Protocol: as §1
# E. coli (ATCC CRM 8739) [5] = type: cell-based, Escherichia coli; conditions: E. coli (ATCC CRM 8739)
# Protocol: as §1
# [6] = test system: K. pneumoniae (ATCC BAA-1705); type: cell-based, Klebsiella pneumoniae; conditions: KPC-producing resistant strain K. pneumoniae (ATCC BAA-1705)
# Protocol: as §1
# [7] = test system: K. pneumoniae (ATCC CRM 43816); type: cell-based, Klebsiella pneumoniae; conditions: K. pneumoniae (ATCC CRM 43816)
# Protocol: as §1
# [8] = test system: S. aureus (ATCC CRM 6538); type: cell-based, Staphylococcus aureus; conditions: S. aureus (ATCC CRM 6538); remark: listed apart in the source
# Protocol: (§2) The MBIC and MBEC assays were performed to measure the inhibition and eradication of bacterial biofilm in the presence of different concentrations of peptides. Gram-positive bacteria were inoculated in Luria–Bertani (LB) broth at 37 °C overnight whereas Gram-negative bacteria were inoculated in tryptic soy broth (TSB), and then sub-cultured until reaching the logarithmic growth phase by measuring the OD values at a wavelength of 550nm. For the MBIC assay, 99 µL of diluted bacterial suspension (5 × 10^5 CFU/mL) was mixed with 1 µL of prepared peptide solutions in the wells of a round-bottomed 96-well plate, achieving the final concentrations from 512 to 1 µM, and then incubated at 37 °C for 24 h in a shaking incubator at 200 revolutions per minute (rpm). After this, the plate was washed twice by PBS and fixed with methanol for 30 min. For MBEC assay, 100 µL of diluted bacterial suspension (5 × 10^5 CFU/mL) was seeded into a round-bottomed 96-well plate and incubated at 37 °C for 24 h in a shaking incubator at 200 rpm to obtain mature biofilm. After this, plates were washed twice by PBS and incubated with different concentrations of peptide solution from 512 to 1 µM at 37 °C for 24 h. Afterwards, the plate was washed twice with PBS and fixed with methanol for 30 min. Then, both MBIC and MBEC plates were stained by 130 μL of 0.1% (g/v) crystal violet solutions for 30 min and washed with PBS until no apparent staining was observed. Evaporating crystal violet stains were dissolved by 33% (v/v) acetic acid, and the absorbance values were measured by a Synergy HT Microplate Reader (BioTek, Minneapolis, MN, USA) set to 595 nm. The minimum concentration that inhibited the formation of biofilm was defined when compared to the negative control group, as the MBIC. The minimum concentration that eradicated the biofilm was defined, when compared to the negative control group, as the MBEC. The biofilm assays were performed in triplicate.
# MRSA (ATCC CRM 12493) [9] = type: cell-based, methicillin-resistant S. aureus; conditions: MRSA (ATCC CRM 12493); remark: listed apart in the source
# Protocol: as §2
# E. coli (ATCC CRM 8739) [10] = type: cell-based, Escherichia coli; conditions: E. coli (ATCC CRM 8739); remark: listed apart in the source
# Protocol: as §2
# [11] = test system: K. pneumoniae (ATCC CRM 43816); type: cell-based, Klebsiella pneumoniae; conditions: K. pneumoniae (ATCC CRM 43816); remark: listed apart in the source
# Protocol: as §2
# [12] = test system: P. aeruginosa (ATCC CRM 9027); type: cell-based, Pseudomonas aeruginosa; conditions: P. aeruginosa (ATCC CRM 9027); remark: listed apart in the source
# Protocol: as §2
substance,measurement,setting,value
"GLWNSIKIA-NH2 [GL-9, GLWNSIKIA-NH2]",MBC,E. faecalis (NCTC 12697),>512 µM
same,MIC,E. faecalis (NCTC 12697),>512 µM
same,MBC,[1],>512 µM
same,MIC,[1],>512 µM
same,MBC,[2],>512 µM
same,MIC,[2],>512 µM
same,MBC,[3],512 µM
same,MIC,[3],512 µM
same,MBC,S. aureus (B042 V2E1 A),>512 µM
same,MIC,S. aureus (B042 V2E1 A),>512 µM
same,MBC,MRSA (ATCC CRM 12493) [4],>512 µM
same,MIC,MRSA (ATCC CRM 12493) [4],>512 µM
same,MBC,MRSA (B038 V1S1 A),>512 µM
same,MIC,MRSA (B038 V1S1 A),>512 µM
same,MBC,E. coli (ATCC BAA-2340),>512 µM
same,MIC,E. coli (ATCC BAA-2340),>512 µM
same,MBC,E. coli (ATCC CRM 8739) [5],> 512 µM
same,MIC,E. coli (ATCC CRM 8739) [5],512 µM
same,MBC,[6],>512 µM
same,MIC,[6],>512 µM
same,MBC,[7],>512 µM
same,MIC,[7],>512 µM
same,MBEC,[8]; biofilm eradication,>512 µM
same,MBIC,[8]; biofilm formation,>512 µM
same,MBEC,MRSA (ATCC CRM 12493) [9]; biofilm eradication,>512 µM
same,MBIC,MRSA (ATCC CRM 12493) [9]; biofilm formation,>512 µM
same,MBEC,E. coli (ATCC CRM 8739) [10]; biofilm eradication,512/>512 μM
same,MBIC,E. coli (ATCC CRM 8739) [10]; biofilm formation,512/>512 μM
same,MBEC,[11]; biofilm eradication,>512 µM
same,MBIC,[11]; biofilm formation,>512 µM
same,MBEC,[12]; biofilm eradication,>512 µM
same,MBIC,[12]; biofilm formation,>512 µM
